Source: ChEMBL document CHEMBL1159243, “Chemical and biological investigation of the polar constituents of the starfish Luidia clathrata, collected in the Gulf of Mexico” (1995)

How the values were obtained:
Staphylococcus aureus = test: Antimicrobial activity against Staphylococcus aureus at 50 ug/disk after 24 to 72 hrs; assay type: functional; settings: read-out: IZ
Bacillus subtilis = test: Antimicrobial activity against Bacillus subtilis at 50 ug/disk after 24 to 72 hrs; assay type: functional; settings: read-out: IZ

**Q.** How did the zone of inhibition at 50 µg/disc (Staphylococcus aureus) turn out when CC(C)[C@@H](O)CC[C@@H](C)[C@H]1C[C@H](OS(=O)(=O)O)[C@H]2[C@@H]3C[C@@H](O)[C@@]4(O)C[C@@H](O)CC[C@]4(C)[C@H]3CC[C@@]21C was run?
**A.** Its zone of inhibition at 50 µg/disc is 1 mm.

**Q.** And the zone of inhibition at 50 µg/disc (Bacillus subtilis)?
**A.** The zone of inhibition at 50 µg/disc was 3 mm.

**Q.** C[C@H](CO)CCC[C@@H](C)[C@H]1[C@@H](O)[C@H](O)[C@H]2[C@@H]3[C@H](O)[C@@H](O)[C@H]4C[C@@H](O)CC[C@]4(C)[C@H]3CC[C@]12C was tested. Which zone of inhibition at 50 µg/disc (Staphylococcus aureus) did it give?
**A.** Its zone of inhibition at 50 µg/disc is 1 mm.

**Q.** What about the zone of inhibition at 50 µg/disc (Bacillus subtilis) of the same compound?
**A.** Its zone of inhibition at 50 µg/disc is 2 mm.
